{
  "source": "the supplement of paper PMC10307832",
  "assay_in_all_cases": "relative viability (nuclei count vs DMSO), 5 days (fraction); higher = more cells survive",
  "key": {"[1]": {"compound": "C1CN(CCC1C(C2=CC3=C(C=C2)OCO3)(C4=CC5=C(C=C4)OCO5)O)C(=O)OC6=CC=C(C=C6)[N+](=O)[O-] [JZL-184]", "method_in_brief": "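Following overnight incubation at 37 °C, lung cancer cell lines in 1536-well plates were pinned with five library-drug doses (not always all listed) in √10 steps on vehicle-anchored plates. The cells then spent 5 days without medium change before a combined fix, permeabilisation and Hoechst stain, 4× imaging and MetaXpress nuclear counts. Viability is the treated-to-vehicle ratio of nuclei, taken as the median across plates. Only plates with control CV below 25% and at least one doubling passed.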"}, "[2]": {"compound": "C1CN(CCC1C(C2=CC3=C(C=C2)OCO3)(C4=CC5=C(C=C4)OCO5)O)C(=O)OC6=CC=C(C=C6)[N+](=O)[O-] [JZL-184] + O=C(c1cc(Cc2n[nH]c(=O)c3ccccc23)ccc1F)N1CCN(C(=O)C2CC2)CC1 [Olaparib] (partner 8 µM)", "method_in_brief": "(§1)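 Cells from lung cancer lines were seeded into 1536-well plates and, one day later, dosed by pin tool. Treatments were either a single drug or a fixed dose of an anchor drug with five library-drug doses (not always all listed) in √10 steps. After 5 days, nuclei were stained in a one-step fixation (final 0.05% Triton X-100, 1% formaldehyde, 1 ug/ml Hoechst) and counted on 4× images, and relative viability is the treated-to-vehicle nuclei ratio, as the median of duplicate plates.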"}, "[3]": {"compound": "C1CN(CCC1C(C2=CC3=C(C=C2)OCO3)(C4=CC5=C(C=C4)OCO5)O)C(=O)OC6=CC=C(C=C6)[N+](=O)[O-] [JZL-184] + CS(=O)(=O)N1CCN(Cc2cc3nc(-c4cccc5[nH]ncc45)nc(N4CCOCC4)c3s2)CC1 [Pictilisib] (partner 1 µM)", "method_in_brief": "as §1"}, "[4]": {"compound": "C1CN(CCC1C(C2=CC3=C(C=C2)OCO3)(C4=CC5=C(C=C4)OCO5)O)C(=O)OC6=CC=C(C=C6)[N+](=O)[O-] [JZL-184] + COc1cc2c(Oc3ccc(NC(=O)C4(C(=O)Nc5ccc(F)cc5)CC4)cc3F)ccnc2cc1OCCCN1CCOCC1 [Foretinib] (partner 0.25 µM)", "method_in_brief": "as §1"}, "[5]": {"compound": "C1CN(CCC1C(C2=CC3=C(C=C2)OCO3)(C4=CC5=C(C=C4)OCO5)O)C(=O)OC6=CC=C(C=C6)[N+](=O)[O-] [JZL-184] + CC1(C)CCC(c2ccc(Cl)cc2)=C(CN2CCN(c3ccc(C(=O)NS(=O)(=O)c4ccc(N[C@H](CCN5CCOCC5)CSc5ccccc5)c(S(=O)(=O)C(F)(F)F)c4)cc3)CC2)C1 [Navitoclax] (partner 0.5 µM)", "method_in_brief": "as §1"}, "[6]": {"compound": "C1CN(CCC1C(C2=CC3=C(C=C2)OCO3)(C4=CC5=C(C=C4)OCO5)O)C(=O)OC6=CC=C(C=C6)[N+](=O)[O-] [JZL-184] + CS(=O)(=O)CCNCc1ccc(-c2ccc3ncnc(Nc4ccc(OCc5cccc(F)c5)c(Cl)c4)c3c2)o1 [Lapatinib] (partner 2 µM)", "method_in_brief": "as §1"}, "[7]": {"compound": "C1CN(CCC1C(C2=CC3=C(C=C2)OCO3)(C4=CC5=C(C=C4)OCO5)O)C(=O)OC6=CC=C(C=C6)[N+](=O)[O-] [JZL-184] + Cc1nc(NC(=O)N2CCC[C@H]2C(N)=O)sc1-c1ccnc(C(C)(C)C(F)(F)F)c1 [Alpelisib] (partner 2 µM)", "method_in_brief": "as §1"}, "[8]": {"compound": "C1CN(CCC1C(C2=CC3=C(C=C2)OCO3)(C4=CC5=C(C=C4)OCO5)O)C(=O)OC6=CC=C(C=C6)[N+](=O)[O-] [JZL-184] + C[C@]1(O)C[C@@H](c2nc(-c3ccc4ccc(-c5ccccc5)nc4c3)c3c(N)nccn32)C1 [Linsitinib] (partner 1 µM)", "method_in_brief": "as §1"}, "[9]": {"compound": "C1CN(CCC1C(C2=CC3=C(C=C2)OCO3)(C4=CC5=C(C=C4)OCO5)O)C(=O)OC6=CC=C(C=C6)[N+](=O)[O-] [JZL-184] + CC(C)C[C@H](NC(=O)[C@H](Cc1ccccc1)NC(=O)c1cnccn1)B(O)O [Bortezomib] (partner 0.002 µM)", "method_in_brief": "as §1"}, "[10]": {"compound": "C1CN(CCC1C(C2=CC3=C(C=C2)OCO3)(C4=CC5=C(C=C4)OCO5)O)C(=O)OC6=CC=C(C=C6)[N+](=O)[O-] [JZL-184] + C[C@@H](Oc1cc(-c2cnn(C3CCNCC3)c2)cnc1N)c1c(Cl)ccc(F)c1Cl [Crizotinib] (partner 1 µM)", "method_in_brief": "as §1"}},
  "data": [
    {"cell line": "NCI-H1299", "values": [
      {"measurement": "relative viability", "setting": "[1]; 0.04 µM", "result": 1.06},
      {"measurement": "relative viability", "setting": "[1]; 0.4 µM", "result": 1},
      {"measurement": "relative viability", "setting": "[1]; 1.265 µM", "result": 1.05},
      {"measurement": "relative viability", "setting": "[1]; 4 µM", "result": 0.977},
      {"measurement": "relative viability", "setting": "[2]; first compound 0.04 µM", "result": 1.01},
      {"measurement": "relative viability", "setting": "[2]; first compound 0.4 µM", "result": 0.937},
      {"measurement": "relative viability", "setting": "[2]; first compound 1.265 µM", "result": 0.936},
      {"measurement": "relative viability", "setting": "[2]; first compound 4 µM", "result": 0.911},
      {"measurement": "relative viability", "setting": "[3]; first compound 0.04 µM", "result": 0.922},
      {"measurement": "relative viability", "setting": "[3]; first compound 0.4 µM", "result": 0.82},
      {"measurement": "relative viability", "setting": "[3]; first compound 1.265 µM", "result": 0.779},
      {"measurement": "relative viability", "setting": "[3]; first compound 4 µM", "result": 0.655},
      {"measurement": "relative viability", "setting": "[4]; first compound 0.04 µM", "result": 1.11},
      {"measurement": "relative viability", "setting": "[4]; first compound 0.4 µM", "result": 1.06},
      {"measurement": "relative viability", "setting": "[4]; first compound 1.265 µM", "result": 1.14},
      {"measurement": "relative viability", "setting": "[4]; first compound 4 µM", "result": 1.04},
      {"measurement": "relative viability", "setting": "[5]; first compound 0.04 µM", "result": 1.06},
      {"measurement": "relative viability", "setting": "[5]; first compound 0.4 µM", "result": 1.05},
      {"measurement": "relative viability", "setting": "[5]; first compound 1.265 µM", "result": 1.06},
      {"measurement": "relative viability", "setting": "[5]; first compound 4 µM", "result": 1.05},
      {"measurement": "relative viability", "setting": "[6]; first compound 0.04 µM", "result": 0.954},
      {"measurement": "relative viability", "setting": "[6]; first compound 0.4 µM", "result": 0.924},
      {"measurement": "relative viability", "setting": "[6]; first compound 1.265 µM", "result": 0.969},
      {"measurement": "relative viability", "setting": "[6]; first compound 4 µM", "result": 0.912},
      {"measurement": "relative viability", "setting": "[7]; first compound 0.04 µM", "result": 1.14},
      {"measurement": "relative viability", "setting": "[7]; first compound 0.4 µM", "result": 1.01},
      {"measurement": "relative viability", "setting": "[7]; first compound 1.265 µM", "result": 1.08},
      {"measurement": "relative viability", "setting": "[7]; first compound 4 µM", "result": 1.04},
      {"measurement": "relative viability", "setting": "[8]; first compound 0.04 µM", "result": 1.16},
      {"measurement": "relative viability", "setting": "[8]; first compound 0.4 µM", "result": 1.01},
      {"measurement": "relative viability", "setting": "[8]; first compound 1.265 µM", "result": 0.95},
      {"measurement": "relative viability", "setting": "[8]; first compound 4 µM", "result": 0.974},
      {"measurement": "relative viability", "setting": "[9]; first compound 0.04 µM", "result": 1.04},
      {"measurement": "relative viability", "setting": "[9]; first compound 0.4 µM", "result": 0.997},
      {"measurement": "relative viability", "setting": "[9]; first compound 1.265 µM", "result": 1.04},
      {"measurement": "relative viability", "setting": "[9]; first compound 4 µM", "result": 0.979},
      {"measurement": "relative viability", "setting": "[10]; first compound 0.04 µM", "result": 0.982},
      {"measurement": "relative viability", "setting": "[10]; first compound 0.4 µM", "result": 0.944},
      {"measurement": "relative viability", "setting": "[10]; first compound 1.265 µM", "result": 0.915},
      {"measurement": "relative viability", "setting": "[10]; first compound 4 µM", "result": 0.884}
    ]}
  ]
}
